According to US10836764B2, “5-HT2C receptor agonists and compositions and methods of use” (Arena Pharmaceuticals, Inc., priority 2016, dated 2020):
Where two headings read alike, the source gives them in different places.

What was measured:
5-HT2A receptor [1] = target: T1, 5-HT2A receptor (Homo sapiens (Human), UniProt P28223); test: IP accumulation assay, 5-HT2A; type: cell-based
Protocol: (§1) HEK293 cells expressing recombinant 5-HT2 receptors were added to sterile poly-D-lysine-coated 96-well microtiter plates (35,000 cells/well) and labeled with 0.6 μCi/well of [^3H]inositol in myoinositol-free DMEM for 18 h. Unincorporated [^3H]inositol was removed by aspiration and replaced with fresh myoinositol-free DMEM supplemented with LiCl (10 mM final) and pargyline (10 μM final). Serially diluted test compounds were then added and incubation was conducted for 2 h at 37° C. (5-HT2B, and 5-HT2A) and RT (5-HT2C). Incubations were then terminated by lysing cells with the addition of ice-cold 0.1 M formic acid followed by freezing at −80° C. After thawing, total [^3H]inositol phosphates were resolved from [^3H]inositol using AG1-X8 ion exchange resin (Bio-Rad) and [^3H]inositol phosphates were measured by scintillation counting using a Perkin Elmer TopCount® scintillation counter. All EC50 determinations were performed using 10 different concentrations and triplicate determinations were made at each test concentration.

5-HT2C receptor = 5-HT2C receptor (Homo sapiens (Human), UniProt P28335); test: IP accumulation assay, 5-HT2C; type: cell-based
Protocol: as §1

5-HT2B receptor = 5-HT2B receptor (Homo sapiens (Human), UniProt P41595); test: IP accumulation assay, 5-HT2B; type: cell-based
Protocol: as §1

5-HT2A receptor [2] = target: T1, 5-HT2A receptor; test: DOI radioligand binding assay, 5-HT2A; details: [125I]DOI competition, HEK293 cell membranes; read-out: DOI Binding 5HT2A
Protocol: For the compounds of Table A, the following procedure was used. HEK293 cells stably expressing recombinant 5-HT2 receptors were harvested, suspended in ice-cold phosphate buffered saline, pH 7.4 (PBS), and then centrifuged at 48,000 g for 20 min at 4° C. The resulting cell pellet was then re-suspended in wash buffer containing 20 mM HEPES, pH 7.4 and 0.1 mM EDTA, homogenized on ice using a Brinkman Polytron, and centrifuged (48,000 g for 20 min at 4° C.). The pellet was then resuspended in 20 mM HEPES, pH 7.4, homogenized on ice, and centrifuged (48,000 g for 20 min at 4° C.). Crude membrane pellets were stored at −80° C. until used for radioligand binding assays.
For the compounds of Table A, the following procedure was used. […] Experiments comprised addition of 95 μL of assay buffer (20 mM HEPES, pH 7.4, 10 mM MgCl2), 50 μL of membranes, 50 μL of radioligand stock, and 5 μL of test compound diluted in assay buffer to 96-well microtiter plates, which were then incubated for 1 h at room temperature. Assay incubations were terminated by rapid filtration through PerkinElmer F/C filtration plates under reduced pressure using a 96-well Packard filtration apparatus, followed by washing three times with ice cold assay buffer. Plates were then dried at 45° C. for a minimum of 2 h. Finally, 25 μL of BetaScint™ scintillation cocktail was added to each well and the plates were counted in a Packard TopCount® scintillation counter. In each competition study, test compounds were dosed at ten concentrations with triplicate determinations at each test concentration.

[3] = IP accumulation, HEK293 cells, 2 h at 37° C., read-out: EC50 5HT2A
[4] = IP accumulation, HEK293 cells, 2 h at RT, read-out: EC50 5HT2C
[5] = IP accumulation, HEK293 cells, 2 h at 37° C., read-out: EC50 5HT2B

Sequence of 5-HT2B receptor (P41595 whole entry): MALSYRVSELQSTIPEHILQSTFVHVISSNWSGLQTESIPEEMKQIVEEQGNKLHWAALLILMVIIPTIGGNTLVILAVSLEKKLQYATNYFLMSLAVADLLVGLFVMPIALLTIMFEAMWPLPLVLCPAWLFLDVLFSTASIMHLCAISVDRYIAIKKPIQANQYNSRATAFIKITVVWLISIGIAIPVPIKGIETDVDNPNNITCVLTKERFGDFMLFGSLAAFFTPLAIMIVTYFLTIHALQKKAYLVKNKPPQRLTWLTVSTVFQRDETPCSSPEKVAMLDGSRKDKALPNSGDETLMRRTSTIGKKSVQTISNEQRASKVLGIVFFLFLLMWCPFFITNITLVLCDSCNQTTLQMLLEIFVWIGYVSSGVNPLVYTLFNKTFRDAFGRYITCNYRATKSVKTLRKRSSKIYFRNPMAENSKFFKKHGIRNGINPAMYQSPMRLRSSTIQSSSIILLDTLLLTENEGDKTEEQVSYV
T1 sequence (P28223 whole entry): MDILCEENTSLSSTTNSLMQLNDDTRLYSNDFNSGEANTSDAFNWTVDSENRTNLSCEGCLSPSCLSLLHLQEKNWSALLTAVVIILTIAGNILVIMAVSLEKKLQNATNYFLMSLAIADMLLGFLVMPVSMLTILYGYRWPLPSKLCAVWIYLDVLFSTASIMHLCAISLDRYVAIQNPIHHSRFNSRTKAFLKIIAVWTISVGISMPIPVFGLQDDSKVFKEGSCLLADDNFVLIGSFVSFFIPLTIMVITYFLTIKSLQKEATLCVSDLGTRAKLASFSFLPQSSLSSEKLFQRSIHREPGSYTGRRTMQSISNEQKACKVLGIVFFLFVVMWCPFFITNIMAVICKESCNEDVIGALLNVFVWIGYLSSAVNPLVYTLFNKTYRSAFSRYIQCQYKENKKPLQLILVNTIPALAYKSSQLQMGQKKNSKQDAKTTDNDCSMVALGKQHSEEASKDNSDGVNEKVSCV
Sequence of 5-HT2C receptor (P28335 33-458): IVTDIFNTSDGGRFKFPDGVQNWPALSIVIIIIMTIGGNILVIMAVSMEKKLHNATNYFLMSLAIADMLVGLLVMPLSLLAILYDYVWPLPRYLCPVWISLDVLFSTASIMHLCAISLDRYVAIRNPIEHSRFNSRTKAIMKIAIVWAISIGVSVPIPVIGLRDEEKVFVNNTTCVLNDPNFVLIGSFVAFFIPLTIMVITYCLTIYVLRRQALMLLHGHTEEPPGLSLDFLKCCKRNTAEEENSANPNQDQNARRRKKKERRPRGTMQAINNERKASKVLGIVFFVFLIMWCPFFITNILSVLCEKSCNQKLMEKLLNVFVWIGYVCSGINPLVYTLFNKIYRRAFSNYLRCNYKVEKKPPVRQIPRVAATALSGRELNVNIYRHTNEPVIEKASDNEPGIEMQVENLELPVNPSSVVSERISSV

Compound | EC50 (5-HT2C receptor; [4]) | EC50 (5-HT2B receptor; [5]) | EC50 (5-HT2A receptor [1]) | further results
O=C(Nc1ccnc2c1CC[C@@H]1CNCCN21)c1cccc(F)c1F [Compound 138, (R)-2,3-difluoro-N-(6,6a,7,8,9,10-hexahydro-5H-pyrazino[1,2-a][1,8]naphthyridin-4-yl)benzamide] | 5.82 µM | ≥ 100 µM |  | EC50 (5-HT2A receptor [1]; [3]): ≥ 100 µM
c1cc(-c2ccc3c(c2)OCO3)c2c(n1)N1CCNC[C@H]1CC2 [Compound 101, (R)-4-(benzo[d][1,3]dioxol-5-yl)-6,6a,7,8,9,10-hexahydro-5H-pyrazino[1,2-a][1,8]naphthyridine] | 7.51 µM | ≥ 100 µM | ≥ 100 µM | 
CCCc1cncc2c1CC[C@@H]1CNCCN21 [Compound 173, (R)-4-propyl-6,6a,7,8,9,10-hexahydro-5H-pyrazino[1,2-a][1,7]naphthyridine] |  |  |  | Ki (5-HT2A receptor [2]): 44 nM
O=C(NCC(F)F)c1ccnc2c1CC[C@@H]1CNCCN21 [Compound 140, (R)-N-(2,2-difluoroethyl)-6,6a,7,8,9,10-hexahydro-5H-pyrazino[1,2-a][1,8]naphthyridine-4-carboxamide] | 4.62 µM | ≥ 100 µM | ≥ 100 µM | 
c1cc(C2CCC2)c2c(n1)N1CCNC[C@H]1CC2 [Compound 149, (R)-4-cyclobutyl-6,6a,7,8,9,10-hexahydro-5H-pyrazino[1,2-a][1,8]naphthyridine] |  |  |  | EC50 (5-HT2A receptor [1]; [3]): 0.236 µM; Ki (5-HT2A receptor [2]): 10.3 nM
COc1ccc(-c2ccnc3c2CC[C@@H]2CNCCN32)cc1 [Compound 135, (R)-4-(4-methoxyphenyl)-6,6a,7,8,9,10-hexahydro-5H-pyrazino[1,2-a][1,8]naphthyridine] | 5.41 µM | ≥ 100 µM | ≥ 100 µM | 
Clc1ccnc2c1CC[C@@H]1CNCCN21 [Compound 150, (R)-4-chloro-6,6a,7,8,9,10-hexahydro-5H-pyrazino[1,2-a][1,8]naphthyridine] |  |  | 1.33 µM | EC50 (5-HT2C receptor): 0.00519 µM; EC50 (5-HT2B receptor): 0.0454 µM
c1cc2c(c(CC3CCC3)n1)CC[C@@H]1CNCCN21 [Compound 154, (R)-7-(cyclobutylmethyl)-2,3,4,4a,5,6-hexahydro-1H-pyrazino[1,2-a][1,6]naphthyridine] |  |  | ≥ 100 µM | EC50 (5-HT2C receptor): 5.58 µM; EC50 (5-HT2B receptor): ≥ 100 µM
O=C(Cc1ccccc1)Nc1ccnc2c1CC[C@@H]1CNCCN21 [Compound 124, (R)-N-(6,6a,7,8,9,10-hexahydro-5H-pyrazino[1,2-a][1,8]naphthyridin-4-yl)-2-phenylacetamide] | 3.66 µM | ≥ 100 µM | ≥ 100 µM | 
CNC(=O)c1ccnc2c1CC[C@@H]1CNCCN21 [Compound 102, (R)-N-methyl-6,6a,7,8,9,10-hexahydro-5H-pyrazino[1,2-a][1,8]naphthyridine-4-carboxamide] | 100 µM | ≥ 100 µM | ≥ 100 µM | 
FC(F)(F)Oc1cccc(-c2ccnc3c2CC[C@@H]2CNCCN32)c1 [Compound 105, (R)-4-(3-(trifluoromethoxy)phenyl)-6,6a,7,8,9,10-hexahydro-5H-pyrazino[1,2-a][1,8]naphthyridine] | 3.07 µM | ≥ 100 µM |  | EC50 (5-HT2A receptor [1]; [3]): ≥ 100 µM
FC(F)(F)c1ccccc1-c1ccnc2c1CC[C@@H]1CNCCN21 [Compound 134, (R)-(2-(trifluoromethyl)phenyl)-6,6a,7,8,9,10-hexahydro-5H-pyrazino[1,2-a][1,8]naphthyridine] | 5.61 µM | 1.73 µM | ≥ 100 µM | 
CC1CC2CNCCN2c2ncccc21 (stereo not drawn) [Compound 158, 5-methyl-6,6a,7,8,9,10-hexahydro-5H-pyrazino[1,2-a][1,8]naphthyridine] |  |  |  | Ki (5-HT2A receptor [2]): 1080 nM
c1cc(C2CC2)c2c(n1)N1CCNC[C@H]1CC2 [Compound 151, (R)-4-cyclopropyl-6,6a,7,8,9,10-hexahydro-5H-pyrazino[1,2-a][1,8]naphthyridine] |  |  | 0.435 µM | EC50 (5-HT2C receptor): 0.00622 µM; EC50 (5-HT2B receptor): 0.015 µM
O=C(Nc1ccnc2c1CC[C@@H]1CNCCN21)c1ccccc1Cl [Compound 104, (R)-2-chloro-N-(6,6a,7,8,9,10-hexahydro-5H-pyrazino[1,2-a][1,8]naphthyridin-4-yl)benzamide] | 100 µM | ≥ 100 µM | ≥ 100 µM | 
c1cc(C2CCCCC2)c2c(n1)N1CCNC[C@H]1CC2 [Compound 127, (R)-4-cyclohexyl-6,6a,7,8,9,10-hexahydro-5H-pyrazino[1,2-a][1,8]naphthyridine] | 1.51 µM | 0.919 µM | 9.07 µM | 
O=C(Nc1ccnc2c1CC[C@@H]1CNCCN21)N1CCCC1 [Compound 131, (R)-N-(6,6a,7,8,9,10-hexahydro-5H-pyrazino[1,2-a][1,8]naphthyridin-4-yl)pyrrolidine-1-carboxamide] | 100 µM | ≥ 100 µM | ≥ 100 µM | 
CCc1c(COC(C)C)cnc2c1CC[C@@H]1CNCCN21 [Compound 163, (R)-4-ethyl-3-(isopropoxymethyl)-6,6a,7,8,9,10-hexahydro-5H-pyrazino[1,2-a][1,8]naphthyridine] |  |  |  | Ki (5-HT2A receptor [2]): 468 nM
c1cnc2c(c1)CC[C@@H]1CNCCN21 [Compound 148, (R)-6,6a,7,8,9,10-hexahydro-5H-pyrazino[1,2-a][1,8]naphthyridine] | 0.0934 µM | 0.0612 µM |  | EC50 (5-HT2A receptor [1]; [3]): 100 µM
O=C(Nc1ccnc2c1CC[C@@H]1CNCCN21)c1ccccc1 [Compound 139, (R)-N-(6,6a,7,8,9,10-hexahydro-5H-pyrazino[1,2-a][1,8]naphthyridin-4-yl)benzamide] | 100 µM | ≥ 100 µM | ≥ 100 µM | 
c1cc2c(cn1)CC[C@@H]1CNCCN21 [Compound 155, (R)-2,3,4,4a,5,6-hexahydro-1H-pyrazino[1,2-a][1,6]naphthyridine] |  |  | ≥ 100 µM | EC50 (5-HT2C receptor): 100 µM; EC50 (5-HT2B receptor): ≥ 100 µM
CCOC(=O)Nc1ccnc2c1CC[C@@H]1CNCCN21 [Compound 123, (R)-ethyl(6,6a,7,8,9,10-hexahydro-5H-pyrazino[1,2-a][1,8]naphthyridin-4-yl)carbamate] | 0.898 µM | ≥ 100 µM | ≥ 100 µM | 
CCc1c(C2CCC2)cnc2c1CC[C@@H]1CNCCN21 [Compound 166, (R)-3-cyclobutyl-4-ethyl-6,6a,7,8,9,10-hexahydro-5H-pyrazino[1,2-a][1,8]naphthyridine] |  |  |  | Ki (5-HT2A receptor [2]): 958 nM
CCc1c(CC2CCCC2)cnc2c1CC[C@@H]1CNCCN21 [Compound 171, (R)-3-(cyclopentylmethyl)-4-ethyl-6,6a,7,8,9,10-hexahydro-5H-pyrazino[1,2-a][1,8]naphthyridine] |  |  |  | Ki (5-HT2A receptor [2]): 351 nM
O=C(Nc1ccnc2c1CC[C@@H]1CNCCN21)C1CC1 [Compound 141, (R)-N-(6,6a,7,8,9,10-hexahydro-5H-pyrazino[1,2-a][1,8]naphthyridin-4-yl)cyclopropanecarboxamide] | 100 µM | ≥ 100 µM | ≥ 100 µM | 
CSc1nc(Cl)c2c(n1)N1CCNC[C@H]1CC2 [Compound 169, (R)-4-chloro-2-(methylthio)-6,6a,7,8,9,10-hexahydro-5H-pyrazino[1′,2′:1,6]pyrido[2,3-d]pyrimidine] |  |  |  | Ki (5-HT2A receptor [2]): 129 nM
CCCC(C)c1ccnc2c1CC[C@@H]1CNCCN21 (stereo partly drawn) [Compound 109, (6aR)-4-(pentan-2-yl)-6,6a,7,8,9,10-hexahydro-5H-pyrazino[1,2-a][1,8]naphthyridine] |  |  |  | Ki (5-HT2A receptor [2]): 25.9 nM
